The values that follow come from patent publication US12053480B2, “Methods and pharmaceutical compositions for treating peripheral demyelinating diseases” (INSERM (INSTITUT NATIONAL DE LA SANTE ET DE LA RECHERCHE …, priority 2015, dated 2024).

For assay [1], the target named is T1, VDAC1 (Mus musculus, UniProt Q60932).
T1 construct: strongly expressed in mSC mitochondria; from tissue; host or cells: myelinating Schwann cells (mSC) of the sciatic nerve of living mice (wild type; db/db and +/db in A10)
The assay is described as follows: Fluorescent probe imaging of mSC mitochondria in diabetic db/db mice, basal conditions. Type of assay: in vivo. Here is the method: (§1) Mice were anesthetized with isoflurane inhalation and placed under a Stemi2000 microscope (Zeiss). Incision area was shaved and cleaned using betadine solution. After incision, the gluteus superficialis and biceps femoris muscles were separated to reveal the cavity traversed by the sciatic nerve. The nerve was lift out using spatula and a thin glass needle filled with viral solution (8 μl) was introduced into the nerve with a micromanipulator. This solution was injected over 30 min with short pressure pulses using a Picospritzer III (Parker Hannifin) coupled to a pulse generator. After injection, the nerve was replaced into the cavity, the muscles were readjusted, and the wound was closed using clips (for further details see Gonzalez et al., 2014^3).
TRO19622 drug (Tocris bioscience, Ref. 2906) was diluted in ethanol to 20 mM and then, the solution was diluted in sterile PBS to 20 μM. TRO19622 treatments were realized by 3 mg/kg intraperitoneal (IP) injections of 20 mM solution or by intra sciatic nerve injections of 2 μl of drug solution 2 μM using a Hamilton syringe or a glass needle in sterile conditions 30 minutes before multiphoton image acquisitions or immunohistochemistry and demyelination studies respectively. […] All drug concentrations were previously evaluated by Bordet et al, 2007^5; Goldin et al, 2008^6; Sharov et al, 2007^7. […]

For assay [2], the system named is mSC mitochondria. The assay can be described thus: Mitochondrial pH imaging (mito-SypHer) in mSC of mouse sciatic nerve. Type of assay: in vivo. The settings on record: after nerve crush. Here is the method:
as §1
(§2) TRO19622 drug (Tocris bioscience, Ref. 2906) was diluted in ethanol to 20 mM and then, the solution was diluted in sterile PBS to 20 μM. TRO19622 treatments were realized by 3 mg/kg intraperitoneal (IP) injections of 20 mM solution or by intra sciatic nerve injections of 2 μl of drug solution 2 μM using a Hamilton syringe or a glass needle in sterile conditions 30 minutes before multiphoton image acquisitions or immunohistochemistry and demyelination studies respectively. Methyl jasmonate drug (Sigma-Aldrich, Ref. 392707) was diluted in 1 ml of sterile PBS to 1M or 3M. Methyl jasmonate treatments were realized by intra sciatic nerve injections of 1 μl of drug solution using a glass needle and micromanipulator in sterile conditions following the same virus injections procedure (see in vivo virus injection in the sciatic nerve method) two hours before multiphoton image acquisition. […] All drug concentrations were previously evaluated by Bordet et al, 2007^5; Goldin et al, 2008^6; Sharov et al, 2007^7.
First injected mouse was anesthetized with 5% of isoflurane a 1.5% of oxygen into the anesthesia system box (World Precision Instruments, Ref. EZ-B800) for 5 minutes. Anesthesia controls were realized^8. Then, mouse was placed in anesthesia mask and the incision area was shaved and cleaned with betadine and ethanol 70% solution. […]

Another assay has as its system diabetic (db/db) mice. The assay can be described thus: Electrophysiology (CMAP, NCV) in diabetic mice. Type of assay: in vivo, mouse. The settings on record: after 30 days of treatment. Here is the method: (§3) Standard electroneurography was performed before, during and after TRO 19622 drug treatment on CMT1A rats and diabetic mice that were anesthetized with 3% isoflurane. A pair of steel needle electrodes (AD Instruments, MLA1302, Oxford, UK) was placed subcutaneously along the nerve at sciatic notch (proximal stimulation). A second pair of electrodes was placed along the tibial nerve above the ankle (distal stimulation). Supramaximal square wave pulses lasting 10 ms and 1 mA for mice and 3.6 mA for rats were delivered using a PowerLab 26T (AD Instruments, Oxford, UK). Compound muscle action potential (CMAP) was recorded from the intrinsic foot muscles using steel electrodes. Both amplitudes and latencies of CMAP were determined. The distance between the two sites of stimulation was measured alongside the skin surface with fully extended legs, and nerve conduction velocities (NCVs) were calculated automatically from sciatic nerve latency measurements (for further details Fledrich et al., 2014^10).
As previously reported^37, 38, we observed a reduction of the nerve conduction velocity in db/db diabetic mice with no change in the amplitude of the compound of action potentials (CMAP).

In assay [3] the test system is myelinating Schwann cells. The assay is described as follows: mSC demyelination morphology (confocal microscopy) four days after nerve crush. Type of assay: in vivo, mouse. The settings on record: intraperitoneal or intranerve injections before and daily after nerve injury. Here is the method: as §1, §2
Finally we also investigated the demyelination using typical defects induced in the cellular morphology of mSC. Nerves expressing control or VDAC1 shRNAs were crushed to induce demyelination and four days later, when demyelination is maximal, we analyzed the morphology of VDAC1-silenced mSC using confocal microscopy as described previously^19. mSC display long homogenous noodle-like morphology with a regular diameter but during demyelination, they acquire a heterogeneous morphology often alterning large structures (myelin ovoids) with thin processes and their extremities split in fine extensions.

Assay [4] deals with T1, VDAC1. The assay can be described thus: Cytoplasmic calcium imaging (GCaMP2, multiphoton) in mSC of mouse sciatic nerve. The assay is classed as in vivo. The protocol:
as §1, §2
(§4) First injected mouse was anesthetized with 5% of isoflurane a 1.5% of oxygen into the anesthesia system box (World Precision Instruments, Ref. EZ-B800) for 5 minutes. Anesthesia controls were realized^8. Then, mouse was placed in anesthesia mask and the incision area was shaved and cleaned with betadine and ethanol 70% solution. Incision was realized using a scalpel and the skin was retracted using forceps in order to expose the gluteus superficialis and bleeps femoris muscles. Next, the connective tissue that connects both muscles was cut and the sciatic nerve was gently lifted out using a spatula. A flexible bridge was slide below sciatic nerve and it was placed into a plastic first pool fixed to the bridge. Mouse was placed under the multiphoton microscope, the bridge was fixed using magnetic brackets to avoid physiological movement and mouse legs were fixed using clippers. Microscope dark box temperature is controlled to 37° C. during all time-lapse imaging. Finally, a second pool was fixed to the first pool using a drop of agarose low melting 3% (Promega, Ref. V2111) in Leibovitz's L15 medium (Gibco Life Technologies) and filled with deionized water to immerse the objectives 20× or 63× (Carl Zeiss Microscopy).
All time-lapse images were obtained with a multiphoton microscope Zeiss LSM 7 MP OPO. Mitochondria motility images were acquired by time-lapse recording of one image every five minutes during five hours at 920 nm. GCaMP2 and SypHer probe images were acquired by time-lapse recording of one image every fifteen minutes during five hours at 985 nm. Images were acquired to constant 1% of laser intensity to 100 msec of acquisition time with 512×512 resolution and 10 images of z-stack of 20 μm. Images were saved in Zeiss .czi format and processed using Image J program. For further details see Gonzalez et al., 201X^8
To characterize mitochondria physiology during the demyelination process we combined two in vivo methods. We used the nerve crush model to reliably induce demyelination in the mouse sciatic nerve and a viral approach^19 allowing the expression of different fluorescent probes selectively into mitochondria of myelinating Schwann cells (mSC) in mouse sciatic nerve. […]

Assay [5] concerns mSC mitochondria. The assay can be described thus: Mitochondrial motility imaging (mito-dsRed2) in mSC of mouse sciatic nerve. Type of assay: in vivo. The settings on record: after nerve crush. Here is the method: as §1, §2, §4
All time-lapse images were obtained with a multiphoton microscope Zeiss LSM 7 MP OPO. Mitochondria motility images were acquired by time-lapse recording of one image every five minutes during five hours at 920 nm. GCaMP2 and SypHer probe images were acquired by time-lapse recording of one image every fifteen minutes during five hours at 985 nm. Images were acquired to constant 1% of laser intensity to 100 msec of acquisition time with 512×512 resolution and 10 images of z-stack of 20 μm. […]

For the next assay, the system named is CMT1A rats. The assay can be described thus: Electrophysiology (CMAP, NCV) in CMT1A rats. The assay is classed as in vivo, rat. The settings on record: CMT1A rats treated daily for one month. Here is the method: as §3

T1 sequence (Q60932 14-296): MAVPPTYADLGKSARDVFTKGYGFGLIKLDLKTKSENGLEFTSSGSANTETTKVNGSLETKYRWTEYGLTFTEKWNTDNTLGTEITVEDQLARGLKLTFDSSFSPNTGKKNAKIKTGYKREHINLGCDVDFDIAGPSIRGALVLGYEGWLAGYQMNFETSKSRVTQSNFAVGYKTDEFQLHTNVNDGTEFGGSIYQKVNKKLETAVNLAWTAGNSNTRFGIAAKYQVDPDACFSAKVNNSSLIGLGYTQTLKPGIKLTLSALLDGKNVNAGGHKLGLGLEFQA

In the case of `CC(C)CCC[C@@H](C)[C@H]1CC[C@H]2[C@@H]3CCC4=C/C(=N\O)CC[C@]4(C)[C@H]3CC[C@]12C` [TRO19622, (NZ)—N-[(8S,9S,10R,13R,14S,17R)-10,13-dimethyl-17-[(2R)-6-methylheptan-2-yl]-1,2,6,7,8,9,11,12,14,15,16,17-dodecahydrocyclopenta[a]phenanthren-3-ylidene]hydroxylamine], the mitochondrial motility result on VDAC1 [1] is reported as “increased”. Further, the “mitochondrial pH” value at VDAC1 [1] is recorded as “significantly reduced”. Besides, the “changes induced by nerve crush in mitochondrial pH not abrogated” value in the assay with mSC mitochondria [2] was found to be 12%. For the same compound, the CMAP amplitude entry in the assay with diabetic (db/db) mice is recorded as “without change”; in the assay with CMT1A rats, “significant increase”. Moreover, the nerve conduction velocity entry in the assay with diabetic (db/db) mice is recorded as “significantly increased to reach control mice velocity”; in the assay on CMT1A rats, “significant increase”; in the assay with CMT1A rats (listed as TRO16922), “largely improved”. Besides, the “number of demyelinating cells after nerve injury” value in assay [3] is recorded as “strongly reduced”. Besides, on VDAC1 [4] (after nerve crush with VDAC1 silenced or blocked), the “part of the calcium appearing in the cytoplasm after nerve crush that is not abolished (non-mitochondrial origin)” value came out at 13%. Besides, on VDAC1 [4] (cytoplasmic GCaMP2, after nerve crush), the “presence of cytoplasmic calcium in mSC after crush” value is on record as “strong reduction”. In addition, the “changes induced by nerve crush in mitochondrial motility not abrogated” value in the assay on mSC mitochondria [5] is 20%.
